The source of these data is patent US8494269B2, “Method and system for screening of a to-be-analyzed candidate as a skin-whitening agent” (National Sun Yat-Sen University, priority 2009, dated 2013).

Assay [1] deals with zebrafish larvae. Description: Zebrafish larvae skin-whitening screen, number of valid pixels by Image Scion. Type of assay: in vivo, zebrafish (Danio Rerio). The note with it: for mean of the number of "valid pixels" versus concentration of the administered candidate: FIGS. 11, 12 and 13, 48 h exposure, Image Scion; for concentration giving statistically significant reduction of "valid pixels" in the images of the zebrafish vs control group: embryos exposed 48 h in Hank's buffer/DMSO, p<0.05, ANOVA followed by Duncan's method, Image Scion index 150-254; for conclusion of the screening as skin-whitening agent: second feature parameter smaller than the first with p<0.05. The method, then: The preparation of the zebrafish embryos was similar to, but with small modifications from, that disclosed in M. Westerfield (2007), The Zebrafish Book: A Guide for the Laboratory Use of Zebrafish (Danio Rerio), 5th edit. University of Oregon Press, Eugene, Oreg. First, one female fish and two male fish were put in a breeding tank having an acrylic grid under a water temperature of 28.5 degrees Celsius. Then, the breeding tank was made to undergo a first light-dark cycle of 14 hours of light and 10 hours of darkness. Subsequently, during the second light-dark cycle, the female fish and the male fish would respectively produce eggs and sperms for fertilization so as to obtain fertilized eggs. These fertilized eggs are referred to as fertilized eggs from “the same parental generation”. Next, after an hour, the fertilized eggs were removed from the breeding tank with a dropper, and were disposed in a Petri dish containing the Hank's buffer prepared according to the above-disclosed formula. Later, the Petri dish was disposed in an incubator (RI-80, FIRSTEK, Taiwan) under a controlled temperature of 28.5 degrees Celsius, and a controlled light-dark cycle of 14 hours of light and 10 hours of darkness for a 9-hour breeding process to allow development of the fertilized eggs into embryos. Subsequently, a Leica Z16 APO stereomicroscope (Leica, Heerbrugg, Switzerland) was used for the observation of the development of various embryos. Based on the observations, only well-developed embryos were kept for use in the experiments that followed.
First, arbutin (Sigma, Cat. No. A4256), N-phenylthiourea (Sigma, Cat. No. P7629) and kojic acid (Sigma, Cat. No. K3125) were respectively dissolved in a 2% dimethyl sulfoxide (DMSO) solution prepared from Hank's buffer to result in arbutin solutions with concentrations of 0.1 mM, 0.2 mM, 1 mM, 2 mM, 10 mM and 20 mM, N-phenylthiourea solutions with concentrations of 0.002 mM, 0.02 mM, 0.2 mM, 0.4 mM, 1 mM and 2 mM, and kojic acid solutions with concentrations of 0.2 mM, 1 mM, 2 mM, 20 mM, 40 mM and 100 mM, respectively. Next, each well of a 96-well plate is provided with 100 μL of Hank's buffer. Subsequently, in accordance with the operational conditions set forth below in Table 4, the zebrafish prepared in the way previously described under subsection 2 of section A (Materials used during experimentation) were added respectively to the wells, to which 100 μL of the to-be-analyzed candidates, i.e., arbutin, N-phenylthiourea and kojic acid solutions of various concentrations, were added so as to result in the final concentrations as shown in Table 4. The 96-well plate was then disposed in an incubator under a controlled temperature of 28.5 degrees Celsius, and a controlled light-dark cycle of 14 hours of light and 10 hours of darkness for a 48-hour breeding period to allow the embryos to develop into zebrafish larvae. It should be noted herein that the above procedure was for preparation of a plurality of the “second groups of zebrafish” (i.e., test groups (A2˜A7, N2˜N7, K2˜K7)), while each of the “first groups of zebrafish” (each for a kind of the to-be-tested candidate) were prepared using the same breeding process without the administration of the to-be-analyzed candidates so as to form control groups (A1, N1, K1).
A tricaine methanesulfonate solution (MS-222) with a concentration of 168 ppm was used to anesthetize the zebrafish larvae prepared in Procedure A. Next, a depression slide (Micro Scientific Laboratories, Inc., U.S.A., Cat. No. MM-104SC) containing 1% methyl cellulose (Sigma, Cat. No. M0512) was used to mount the zebrafish. Subsequently, Leica Z16 APO stereomicroscope was used to acquire images of the zebrafish with a 25× magnification rate and a 3.372 ms exposure time.
Image Scion was used to determine the mean of the number of “valid pixels” (i.e., pixels whose grayscale levels fall within a predefined range) in the images corresponding to the zebrafish of the same group. […]

In assay [2] the test system is zebrafish larvae. The assay can be described thus: Zebrafish larvae skin-whitening screen, number of valid pixels by ImageJ version 1.40 g. It counts as in vivo, zebrafish (Danio Rerio). The note with it: groups A1-A7, FIG. 14 vs FIG. 11; ImageJ threshold 0-85. On the procedure:
• (2) ImageJ version 1.40 g (ImageJ, National Institute of Health, Bethesda, Md., U.S.A.) with operation parameters set in Table 3 below for defining the predefined range for a pixel to be considered a “valid pixel”.
First, arbutin (Sigma, Cat. No. A4256), N-phenylthiourea (Sigma, Cat. No. P7629) and kojic acid (Sigma, Cat. No. K3125) were respectively dissolved in a 2% dimethyl sulfoxide (DMSO) solution prepared from Hank's buffer to result in arbutin solutions with concentrations of 0.1 mM, 0.2 mM, 1 mM, 2 mM, 10 mM and 20 mM, N-phenylthiourea solutions with concentrations of 0.002 mM, 0.02 mM, 0.2 mM, 0.4 mM, 1 mM and 2 mM, and kojic acid solutions with concentrations of 0.2 mM, 1 mM, 2 mM, 20 mM, 40 mM and 100 mM, respectively. Next, each well of a 96-well plate is provided with 100 μL of Hank's buffer. Subsequently, in accordance with the operational conditions set forth below in Table 4, the zebrafish prepared in the way previously described under subsection 2 of section A (Materials used during experimentation) were added respectively to the wells, to which 100 μL of the to-be-analyzed candidates, i.e., arbutin, N-phenylthiourea and kojic acid solutions of various concentrations, were added so as to result in the final concentrations as shown in Table 4. […]

Molecules are shown by their SMILES.

Take `NC(=S)Nc1ccccc1` [N-phenylthiourea]: in assay [1], the “mean of the number of "valid pixels" versus concentration of the administered candidate” value is recorded as “decreases with the concentration”, the “concentration giving statistically significant reduction of "valid pixels" in the images of the zebrafish vs control group” value is given as “at least 0.01 mM” and the “conclusion of the screening as skin-whitening agent” value (from here on “conclusion of the screening”) is given as “suitable as skin-whitening agents”.

As to `OC[C@H]1O[C@@H](Oc2ccc(O)cc2)[C@H](O)[C@@H](O)[C@@H]1O` [arbutin], in assay [2], the “comparison of results obtained using ImageJ version 1.40 g with those using Image Scion” value is listed as “no significant difference”. Moreover, in assay [1], the “mean of the number of "valid pixels" versus concentration of the administered candidate” value is “decreases with the concentration”, the “concentration giving statistically significant reduction of "valid pixels" in the images of the zebrafish vs control group” value is “at least 0.05 mM” and the “conclusion of the screening” value was “suitable as skin-whitening agents”.

As for `O=c1cc(CO)occ1O` [kojic acid], in assay [1], the “mean of the number of "valid pixels" versus concentration of the administered candidate” value is “decreases with the concentration”, the “concentration giving statistically significant reduction of "valid pixels" in the images of the zebrafish vs control group” value was “at least 10 mM” and the “conclusion of the screening” value is “suitable as skin-whitening agents”.
